Measured values taken from PubChem BioAssay AID624258 (Broad Institute, 2012).
The source made the active and inactive calls. No rule for the calls is given here.

Test: Yeast SKN7 toxicity growth rescue counterscreen, Saccharomyces cerevisiae, plate reader, dose confirmatory (AID 624258);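 also: growth read after three days of incubation at 30 °C; 0% = median of neutral control wells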
Settings: S. cerevisiae SKN7-toxicity growth rescue, plate reader; at 2.1 µM (top of the series)
In the case of `O=S(=O)(Nc1ccccc1)c1ccc(Oc2ncc(C(F)(F)F)cc2Cl)cc1`, the growth rescue activity is reported as -15.3% (inactive).
For `C=C1C(=O)C23CCC4C(C)(C(=O)OC)CCCC4(C)C2CCC1(O)C3` (stereo not given), the growth rescue activity was -9.52% (inactive).

Same assay, conditions: S. cerevisiae SKN7-toxicity growth rescue, plate reader; at 6.8 µM (top of the series)
In the case of `CCOC(=O)c1cc2c(=Cc3ccc(N(C)C)cc3)c3ccccc3n2[n+]1C`, the growth rescue activity is reported as -71.9% (inactive).
With `CCc1cc(SC#N)cc(C)c1NC(=O)CCl` the growth rescue activity was -50.8% (inactive).
In the case of `COc1cc2nc(N3CCNCC3)nc(N)c2cc1OC`, the growth rescue activity is reported as 5.76% (inactive).
With `CN(C)CCCNc1cc(C(C)(C)C)nc2c(-c3ccc(Cl)cc3)cnn12` the growth rescue activity was 14.1% (inactive).
In the case of `CCCn1c2ccccc2c2cc(C(=O)O)ccc21`, the growth rescue activity is reported as -29.3% (inactive).

Same assay, conditions: S. cerevisiae SKN7-toxicity growth rescue, plate reader; at 19.5 µM (top of the series)
With `O=C1C(=O)c2ccccc2C(O)=C1CC=C(Cl)Cl` the growth rescue activity was -94.4% (inactive).
For `CC(C)(C)c1ccc(C(=O)NC(=S)NNC(=O)c2cccs2)cc1`, the growth rescue activity was -72.5% (inactive).
In the case of `CC(C)=CCc1c(O)ccc(C(=O)Cc2ccccc2)c1O`, the growth rescue activity is reported as -92.2% (inactive).
In the case of `COc1cc(NS(=O)(=O)c2ccc(C)cc2)c2ncccc2c1`, the growth rescue activity is reported as -51.9% (inactive).
In the case of `Cc1ccccc1Oc1nc(-c2ccccn2)nc2ccccc12`, the growth rescue activity is reported as -58.6% (inactive).
With `COc1cccc(/C=N/Nc2ncnc3scc(-c4ccccc4)c23)c1O` the growth rescue activity was -79.1% (inactive).
With `CC1(C)C(C=C(Cl)Cl)C1C(=O)N1CCN(c2ccccc2)CC1` (stereo not given) the growth rescue activity was 6.49% (inactive).
With `Oc1c(Br)cc(Br)cc1CNc1ccc(F)cc1` the growth rescue activity was -92% (inactive).
For `CC1CC(=Cc2ccc([N+](=O)[O-])cc2)C(=O)O1` (stereo not given), the growth rescue activity was 2.43% (inactive).
For `[O-][n+]1cccc2c(Br)cc(Br)c(O)c21`, the growth rescue activity was -82.7% (inactive).
With `COc1ccc(N(C)S(=O)(=O)c2ccc(Cl)c(C(=O)NNC(=O)c3ccccc3O)c2)cc1` the growth rescue activity was 4.7% (inactive).
For `Cc1ccc(O)c(-c2cc(-c3ccccc3C)[nH]n2)c1`, the growth rescue activity was -92.1% (inactive).
With `CCCSC(=S)c1c(C)[nH]n(-c2ccccc2)c1=O` the growth rescue activity was -53% (inactive).
For `Cc1ccc(NS(=O)(=O)c2ccc(N3CCN(c4ccc(O)cc4)CC3)c([N+](=O)[O-])c2)c(C)c1`, the growth rescue activity was -52.6% (inactive).
With `CCC(=O)NC(c1ccco1)c1cc(Cl)c2cccnc2c1O` (stereo not given) the growth rescue activity was -49.4% (inactive).
With `COc1ccc(OC)c(-c2c3cc(O)c(=O)cc-3oc3cc(O)c(O)cc23)c1` the growth rescue activity was 26.2% (inactive).
With `CC/C(=N/NC(=O)c1ccccc1O)c1c(C)[nH]n(-c2ccccc2)c1=O` the growth rescue activity was -59.4% (inactive).
For `O=c1oc(-c2ccccc2)cc(Cl)c1Cl`, the growth rescue activity was -71.1% (inactive).
For `C=C(C)COc1ccc(-c2[nH]ncc2-c2ccc(Br)cc2)c(O)c1`, the growth rescue activity was -77.7% (inactive).
In the case of `O=C(c1ccc(-c2ccccc2)c(F)c1)C1CCCN(C(=O)c2cncs2)C1` (stereo not given), the growth rescue activity is reported as -45.2% (inactive).
In the case of `N#CC1C(=N)Cc2ccccc2-c2ccccc21` (stereo not given), the growth rescue activity is reported as -20.3% (inactive).
For `O=C(Sc1cccc2cccnc12)c1ccccc1Br`, the growth rescue activity was -59.6% (inactive).
With `Oc1c(CN2CCCC2)cc(COCc2ccccc2)c2cccnc12` the growth rescue activity was 23.1% (inactive).
In the case of `O=C(c1cccs1)c1no[n+]([O-])c1C(=O)c1cccs1`, the growth rescue activity is reported as -87.1% (inactive).
In the case of `CN(C)CCCNC(=O)c1ccc(-c2nc(-c3ccc(Cl)cc3)cs2)cc1`, the growth rescue activity is reported as 0.817% (inactive).
For `COc1cccc(C(=O)Nc2sc(C(C)C)cc2C(N)=O)c1OC`, the growth rescue activity was 93.8% (inactive).
With `O=C1c2cccc3cc([N+](=O)[O-])cc(c23)C(=O)N1CC1CCCO1` (stereo not given) the growth rescue activity was 23.2% (inactive).
With `O/N=C(\c1ccc(Cl)cc1)c1cc2ccccc2o1` the growth rescue activity was 3.39% (inactive).
For `CN(C)c1ccc(C=c2c3ccccc3n3c2c2c([n+]3C)CCCC2)cc1`, the growth rescue activity was -74.1% (inactive).
In the case of `CC(=O)c1c(O)ccc2c(-c3ccccc3)cc(=O)oc12`, the growth rescue activity is reported as -69.1% (inactive).
In the case of `Cc1c(C2(O)CCCCC2)[nH]c2ccc(C(F)(F)F)cc12`, the growth rescue activity is reported as -43.8% (inactive).
For `Cc1ccc(-c2c3c(nc4sc(C(N)=O)c(N)c24)CCCC3)o1`, the growth rescue activity was -35.3% (inactive).
With `CCOC(=O)c1ccc(-c2ccc(C3Nc4ccccc4C(=O)N3O)o2)cc1` (stereo not given) the growth rescue activity was -4.76% (inactive).
In the case of `Cc1cc(N2CCN(c3ccccc3)CC2)nc(-c2ccccc2O)n1`, the growth rescue activity is reported as -42.6% (inactive).
With `COc1ccc(-c2oc3ccccc3c2C#Cc2cncn2C)cc1` the growth rescue activity was -49.1% (inactive).
With `Cc1ccc(NC(=O)C2COc3ccccc3O2)cc1S(=O)(=O)N1CCCCC1` (stereo not given) the growth rescue activity was 35.9% (inactive).
With `COc1cccc(/C=N/NC(=O)c2nc(-c3ccccc3)cc(-c3ccccc3)n2)c1O` the growth rescue activity was -39.2% (inactive).
In the case of `Cc1ccc(-n2nnnc2SCC(=O)N2CCc3ccccc3C2)c(C)c1`, the growth rescue activity is reported as -18.8% (inactive).
In the case of `O=C(Nc1nnc(-c2ccccc2)o1)c1ccc(Cl)cc1`, the growth rescue activity is reported as -46.1% (inactive).
In the case of `CN(Cc1ccc(Cl)s1)C(=O)CCl`, the growth rescue activity is reported as 19.3% (inactive).
For `CCOC(=O)c1c(C)[nH]c2c1-c1ccccc1C(=O)C2=O`, the growth rescue activity was -17.4% (inactive).
In the case of `c1ccc(-c2ccc(SCc3cccnc3)nn2)nc1`, the growth rescue activity is reported as -9.85% (inactive).
For `COc1ccc(/C=N/Nc2cc(C)nc(-n3nc(C)cc3C)n2)cc1`, the growth rescue activity was -51.9% (inactive).
For `c1cnc2c(c1)ccc1cccnc12`, the growth rescue activity was -64% (inactive).
In the case of `Cn1nnnc1N=N/C(=N/Nc1ccccc1)c1ccccc1`, the growth rescue activity is reported as -47% (inactive).
With `O=[N+]([O-])c1cc(Oc2cccnc2)cc([N+](=O)[O-])c1` the growth rescue activity was 5.86% (inactive).
For `O=C(C1CCN(C2CC(=O)N(c3cccc(Cl)c3)C2=O)CC1)N1CCCC1` (stereo not given), the growth rescue activity was 84.3% (inactive).
For `COc1cc2c(c(OC)c1OC)-c1ccc(O)c(=O)cc1[C@@H](NC(C)=O)CC2`, the growth rescue activity was -29.6% (inactive).
With `Cc1nc(Sc2ccccc2)c(C#N)c(C)c1[N+](=O)[O-]` the growth rescue activity was 147% (inactive).
In the case of `Cc1cc(Nc2ccccc2)nn1C(=O)c1ccccc1`, the growth rescue activity is reported as 7.09% (inactive).
With `CN(C)c1ccc(NC2=C(Cl)C(=O)c3ccccc3C2=O)cc1` the growth rescue activity was -12.8% (inactive).
In the case of `CCN1/C(=C/c2sc(-c3ccccc3C)c[n+]2C)Sc2ccccc21`, the growth rescue activity is reported as -60.6% (inactive).
In the case of `N#Cc1cc2c(nc1SCc1ccccc1)CCCC2=O`, the growth rescue activity is reported as -24.7% (inactive).
In the case of `CC(=O)N1CC[n+]2c(-c3ccc(Cl)cc3)csc21`, the growth rescue activity is reported as -24.8% (inactive).
In the case of `O=S(=O)(NCCc1csc(-c2cccnc2)n1)c1ccc(Cl)s1`, the growth rescue activity is reported as -65.2% (inactive).
With `CC1(C)C=Cc2c(ccc3c2OC[C@@H](c2ccc(O)cc2O)C3)O1` the growth rescue activity was -92.6% (inactive).
For `Cc1ccc(S(=O)(=O)N(C(=O)c2ccncc2)c2ccc(OC(=O)c3ccncc3)cc2)cc1`, the growth rescue activity was -57.3% (inactive).
With `COC(=O)Cc1cc(=O)n(-c2ccccc2)[nH]1` the growth rescue activity was 9.07% (inactive).
In the case of `S=c1[nH]nc(-c2ccco2)n1/N=C/c1ccc(Br)s1`, the growth rescue activity is reported as 30.2% (inactive).
In the case of `CCOc1cc([N+](=O)[O-])cc(/C=N/NC(=O)c2c(-c3ccccc3)noc2C)c1O`, the growth rescue activity is reported as 0.098% (inactive).
For `CCOC(=O)CN1C(=O)C2Cc3ccccc3CN2C1=S` (stereo not given), the growth rescue activity was 41.4% (inactive).
In the case of `CCc1ccc(OCc2n[nH]c(=S)n2Cc2ccccc2)cc1`, the growth rescue activity is reported as -30.5% (inactive).
For `O=C(OCC(=O)C12CC3CC(CC(C3)C1)C2)c1ccc(O)cc1`, the growth rescue activity was -10.8% (inactive).
For `C=CCNC(=S)N1CCC(Cc2ccccc2)CC1`, the growth rescue activity was -41% (inactive).
In the case of `CN(C)S(=O)(=O)Oc1cccc(C(=O)Nc2ccc(Cl)cc2)c1`, the growth rescue activity is reported as -19.4% (inactive).
In the case of `O/N=C/c1cc(Br)ccc1OCc1ccccc1F`, the growth rescue activity is reported as -57.4% (inactive).
For `Nc1ccc(CC2=NCCN2)cc1`, the growth rescue activity was 34.1% (inactive).
In the case of `CN(C(=O)COC(=O)c1ccc([N+](=O)[O-])cc1Cl)C1CCCCC1`, the growth rescue activity is reported as 139% (inactive).
In the case of `CCCS(=O)(=O)c1c(S(=O)(=O)CCC)c2c(C)cccn2c1C(=O)N/N=C/c1cc(O)cc(O)c1`, the growth rescue activity is reported as 22.5% (inactive).
For `O=[N+]([O-])c1ccc(S(=O)(=O)c2ccccc2)nc1`, the growth rescue activity was 10.3% (inactive).
With `COC(=O)c1cc(C#N)c(Oc2ccc(F)cc2)nc1C` the growth rescue activity was -11.6% (inactive).
In the case of `O=C(CSc1ccc(-c2ccccn2)nn1)NCc1ccc(Cl)cc1`, the growth rescue activity is reported as -56.5% (inactive).
With `COC(OC)c1ccc(C#N)c(SCc2ccccc2)n1` the growth rescue activity was -28.8% (inactive).
With `CC1CCN(c2nc(-c3ccncc3)nc3ccccc23)CC1` the growth rescue activity was -17.2% (inactive).
For `Nc1cc2c3ccccc3ccc2c2ccccc12`, the growth rescue activity was -51.9% (inactive).
With `CC(=O)NC(c1ccc(C)cc1)c1cc([N+](=O)[O-])c2cccnc2c1O` (stereo not given) the growth rescue activity was 61% (inactive).
In the case of `O=c1c2ccccc2nc(-c2cccc(Cl)c2)n1O`, the growth rescue activity is reported as -66% (inactive).
For `O=C1OC(c2ccccc2)=NC12CC2c1ccc(Cl)cc1` (stereo not given), the growth rescue activity was -72.5% (inactive).
For `Cn1cc(SCC(=O)Nc2nc3ccccc3s2)c2ccccc21`, the growth rescue activity was -62.4% (inactive).
With `Oc1cccc2ccc(Nc3ccccn3)nc12` the growth rescue activity was 6.81% (inactive).
In the case of `O=C(Oc1c(Cl)cc(Cl)c2cccnc12)c1cccs1`, the growth rescue activity is reported as -79.3% (inactive).
For `O=C1N(c2ccc(Cl)cc2)C(c2cccnc2)N2CCCN12` (stereo not given), the growth rescue activity was -65.4% (inactive).
With `COc1cc2c(cc1OC)C(C)N(C(=O)C1COc3ccccc3O1)CC2` (stereo not given) the growth rescue activity was 14.6% (inactive).
In the case of `COc1cccc(NC(=O)CN(C)C(=O)c2cccnc2Nc2cccc(C(F)(F)F)c2)c1`, the growth rescue activity is reported as -21.3% (inactive).
For `S=C(NNc1ccc2ccccc2c1)NC1CCCCC1`, the growth rescue activity was -14.9% (inactive).
For `COc1cc(/C=N/O)cc(Br)c1OCc1cccc(Cl)c1`, the growth rescue activity was -82% (inactive).
For `CCC(NC(=S)NCc1ccc(F)cc1)c1ccc(C(C)C)cc1` (stereo not given), the growth rescue activity was 41.2% (inactive).
For `O=C(CCNS(=O)(=O)c1ccc(Br)s1)N1CCN(c2ccccc2)CC1`, the growth rescue activity was -25.4% (inactive).
